# Where two headings read alike, the source gives them in different places.
# What was measured:
# COX-1 [1] = biological target: T1, COX-1 (Canis lupus familiaris, UniProt Q8HZR1); test: Canine whole blood ex vivo COX-1 activity (A23187-stimulated TXB2), Example 2; type: in vivo, dog; conditions: for TXB2 Pg/mL/Well: group average; for inhibition at 2 mg/kg / inhibition at 10 mg/kg: dog, po, based on zero hour value, read-out: COX-1 activity Percent Inhibition
# T1 construct: using an ex vivo procedure on canine whole blood; from tissue; host or cells: whole blood of dosed dogs, stimulated with calcium ionophore A23187
# T1 sequence (Q8HZR1 28-603): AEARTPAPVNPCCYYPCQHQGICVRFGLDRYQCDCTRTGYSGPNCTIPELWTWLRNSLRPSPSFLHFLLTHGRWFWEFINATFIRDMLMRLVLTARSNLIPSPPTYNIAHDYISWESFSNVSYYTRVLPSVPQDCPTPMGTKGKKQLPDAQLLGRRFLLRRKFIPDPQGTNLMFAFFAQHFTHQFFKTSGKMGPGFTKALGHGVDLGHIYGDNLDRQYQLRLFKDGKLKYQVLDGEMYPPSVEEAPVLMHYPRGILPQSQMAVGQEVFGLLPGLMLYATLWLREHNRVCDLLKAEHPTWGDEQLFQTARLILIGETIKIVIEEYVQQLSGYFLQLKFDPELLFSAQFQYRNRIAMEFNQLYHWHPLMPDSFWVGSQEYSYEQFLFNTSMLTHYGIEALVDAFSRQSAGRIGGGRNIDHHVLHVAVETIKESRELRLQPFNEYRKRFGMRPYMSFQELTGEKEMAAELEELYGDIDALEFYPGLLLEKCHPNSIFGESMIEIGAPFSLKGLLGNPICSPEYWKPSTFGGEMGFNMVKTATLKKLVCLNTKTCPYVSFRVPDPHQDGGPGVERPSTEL
# Text: Plasma dilution was not factored in said data values.
# COX-1 [2] = biological target: T1, COX-1; test: Ex vivo COX-1 whole blood assay (TXB2) run in the carrageenan study, Example 4; design: species or system dog; conditions: 2 mg/kg PO, any of the timepoints tested
# Text: The experiment was run in two replicates.
# Table 5 illustrates that carrageenan induced almost a 4-fold increase in PGE2 synthesis in the whiffle ball over background levels.
# [3] = biological target: T2, COX-1 (derived from bovine aortic endothelial cells) (Bos taurus, UniProt O62664); conditions: cited from earlier work
# T2 construct: COX-1 (derived from bovine aortic endothelial cells); host or cells: bovine aortic endothelial cells (endogenous)
# T2 sequence (O62664 25-600): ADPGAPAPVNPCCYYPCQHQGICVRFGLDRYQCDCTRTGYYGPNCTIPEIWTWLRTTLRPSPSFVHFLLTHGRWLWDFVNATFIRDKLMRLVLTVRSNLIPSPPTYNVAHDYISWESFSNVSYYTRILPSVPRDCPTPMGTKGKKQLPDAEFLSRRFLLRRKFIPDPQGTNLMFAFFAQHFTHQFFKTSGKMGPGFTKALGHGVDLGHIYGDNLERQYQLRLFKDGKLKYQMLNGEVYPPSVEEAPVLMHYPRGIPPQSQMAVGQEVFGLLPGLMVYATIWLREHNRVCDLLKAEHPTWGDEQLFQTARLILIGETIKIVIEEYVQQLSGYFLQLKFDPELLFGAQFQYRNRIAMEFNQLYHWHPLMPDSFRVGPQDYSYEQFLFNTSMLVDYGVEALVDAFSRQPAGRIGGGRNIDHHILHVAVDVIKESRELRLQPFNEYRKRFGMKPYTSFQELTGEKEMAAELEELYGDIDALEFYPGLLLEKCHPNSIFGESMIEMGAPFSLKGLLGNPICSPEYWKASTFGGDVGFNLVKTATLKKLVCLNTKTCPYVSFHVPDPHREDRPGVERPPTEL
smiles,measurement,setting,value
"CC(C(=O)O)c1ccc2c(c1)[nH]c1ccc(Cl)cc12 (racemic) [Carprofen (rac.), 6-chloro-α-methyl-9H-carbazole-2-acetic acid]",TXB2 Pg/mL/Well,"COX-1 [1]; 2 mg/kg PO capsule, 0-hour (pre-dose)",72 Pg/mL/Well
same,TXB2 Pg/mL/Well,"COX-1 [1]; 2 mg/kg PO capsule, 1-hour post-dose",75 Pg/mL/Well
same,TXB2 Pg/mL/Well,"COX-1 [1]; 2 mg/kg PO capsule, 3-hour post-dose",66 Pg/mL/Well
same,TXB2 Pg/mL/Well,"COX-1 [1]; 2 mg/kg PO capsule, 6-hour post-dose",46 Pg/mL/Well
same,TXB2 Pg/mL/Well,"COX-1 [1]; 10 mg/kg PO capsule, 0-hour (pre-dose)",51 Pg/mL/Well
same,TXB2 Pg/mL/Well,"COX-1 [1]; 10 mg/kg PO capsule, 1-hour post-dose",31 Pg/mL/Well
same,TXB2 Pg/mL/Well,"COX-1 [1]; 10 mg/kg PO capsule, 3-hour post-dose",6 Pg/mL/Well
same,TXB2 Pg/mL/Well,"COX-1 [1]; 10 mg/kg PO capsule, 6-hour post-dose",7 Pg/mL/Well
same,inhibition at 2 mg/kg,"COX-1 [1]; 2 mg/kg PO capsule, 1-hour",0%
same,inhibition at 2 mg/kg,"COX-1 [1]; 2 mg/kg PO capsule, 3-hour",8%
same,inhibition at 2 mg/kg,"COX-1 [1]; 2 mg/kg PO capsule, 6-hour",36%
same,inhibition at 10 mg/kg,"COX-1 [1]; 10 mg/kg PO capsule, 1-hour",39%
same,inhibition at 10 mg/kg,"COX-1 [1]; 10 mg/kg PO capsule, 3-hour",88%
same,inhibition at 10 mg/kg,"COX-1 [1]; 10 mg/kg PO capsule, 6-hour",86%
same,ex vivo COX-1 inhibition of TXB2,COX-1 [2],no inhibition of TXB2
same,IC50,"[3]; as shown by Battistini et al., read-out: IC50 (μM) COX-1",11 µM
same,IC50,"[3]; n=9, bovine aortic endothelial cells, read-out: IC50 (μg/mL) COX-1 (converted)",11 µM
